# Test results reported in patent publication US12605468B2, “Oxazine-based fluorophore compounds for nerve-specific imaging” (Oregon Health & Science University, priority 2020, dated 2026).
# Test system: nerve
# Experiment: not given
# Details: Park et al. Theranostics 4, 823-833 (2014); cited from earlier work
row,SMILES,nerve-specificity
1,CC/N=c1/cc2oc3cc(NCC)c(C)cc3nc-2cc1C [Oxazine 4],high nerve-specificity

# Test system: not listed separately
# Experiment: Experimental LogD measurement (1-octanol / PBS buffer partition, absorbance readout)
# Type: physicochemical
# Details: pH 7.4, room temperature, read-out: Log D7.4
# Method: Experimental LogD measurements. Each screening candidate was dissolved in DMSO at a concentration of 10 mM. The stock solution was sampled (2 μL) and added to a 1 mL mixture of 1-octanol and PBS buffer (equal volume). The solution was then vortexed for 30 mins at room temperature before centrifuged at 13,000 rpm for 5 minutes. The PBS buffer and 1-octanol layers were separated and measured for absorbance using a SpectraMax M5 spectrometer with a Microplate reader (Molecular Devices, Sunnyvale, CA). Sample concentration in each phase was then calculated using Beer's Law plots of absorbance versus concentration. The experimental LogD value for each screening candidates was calculated using the equation below.
row,SMILES,logD
1,"CC/[N+](C)=c1\ccc2nc3ccc(N4CCC4)cc3oc-2c1 [LGW14-51, (E)-N-(7-(azetidin-1-yl)-3H-phenoxazin-3-ylidene)-N-methylethanaminium]",0.5
2,"CN1CCOc2cc3nc4ccc(=[N+]5CCC5)cc-4oc3cc21 [LGW14-47, 1-(4-methyl-3,4-dihydro-[1,4]oxazino[2,3-b]phenoxazin-8(2H)-ylidene)azetidin-1-ium]",0.1
3,"c1cc2nc3ccc(=[N+]4CCC4)cc-3oc2cc1N1CCCC1 [LGW14-83, 1-(7-(pyrrolidin-1-yl)-3H-phenoxazin-3-ylidene)azetidin-1-ium]",0.5
4,"CCN(CC)c1ccc2nc3ccc(=[N+]4CCC4)cc-3oc2c1 [LGW13-79, 1-(7-(diethylamino)-3H-phenoxazin-3-ylidene)azetidin-1-ium]",0.8
5,"CCN1CCOc2cc3nc4ccc(=[N+]5CCC5)cc-4oc3cc21 [LGW14-42, 1-(4-ethyl-3,4-dihydro-[1,4]oxazino[2,3-b]phenoxazin-8(2H)-ylidene)azetidin-1-ium]",0.5
6,"c1cc2nc3ccc(=[N+]4CCC4)cc-3oc2cc1N1CCC1 [LGW14-53, 1-(7-(azetidin-1-yl)-3H-phenoxazin-3-ylidene)azetidin-1-ium]",0.3
